Test results taken from ChEMBL document CHEMBL5050844 (2019).

Key:
[1] = Induction of anti-CD3 antibodies-stimulated human T cell activation at 8 uM assessed fold increase in IL-2 secretion measured by ELISA assay; type: functional, T cell line; further: reference of the scale not given here
[2] = molecular target: T1, E3 ubiquitin-protein ligase CBL-B (Homo sapiens, UniProt Q13191); assay: Inhibition of N-terminal Avi-tagged human CBL-B (36 to 427 residues) incubated with 60 nM Src kinase for 1.5 hrs followed by incubation with fluorescently labeled UbcH5B-Ub for 1 hr and measured by TR-FRET assay; type: single protein
T1 sequence (Q13191 whole entry, the tested form may be a part): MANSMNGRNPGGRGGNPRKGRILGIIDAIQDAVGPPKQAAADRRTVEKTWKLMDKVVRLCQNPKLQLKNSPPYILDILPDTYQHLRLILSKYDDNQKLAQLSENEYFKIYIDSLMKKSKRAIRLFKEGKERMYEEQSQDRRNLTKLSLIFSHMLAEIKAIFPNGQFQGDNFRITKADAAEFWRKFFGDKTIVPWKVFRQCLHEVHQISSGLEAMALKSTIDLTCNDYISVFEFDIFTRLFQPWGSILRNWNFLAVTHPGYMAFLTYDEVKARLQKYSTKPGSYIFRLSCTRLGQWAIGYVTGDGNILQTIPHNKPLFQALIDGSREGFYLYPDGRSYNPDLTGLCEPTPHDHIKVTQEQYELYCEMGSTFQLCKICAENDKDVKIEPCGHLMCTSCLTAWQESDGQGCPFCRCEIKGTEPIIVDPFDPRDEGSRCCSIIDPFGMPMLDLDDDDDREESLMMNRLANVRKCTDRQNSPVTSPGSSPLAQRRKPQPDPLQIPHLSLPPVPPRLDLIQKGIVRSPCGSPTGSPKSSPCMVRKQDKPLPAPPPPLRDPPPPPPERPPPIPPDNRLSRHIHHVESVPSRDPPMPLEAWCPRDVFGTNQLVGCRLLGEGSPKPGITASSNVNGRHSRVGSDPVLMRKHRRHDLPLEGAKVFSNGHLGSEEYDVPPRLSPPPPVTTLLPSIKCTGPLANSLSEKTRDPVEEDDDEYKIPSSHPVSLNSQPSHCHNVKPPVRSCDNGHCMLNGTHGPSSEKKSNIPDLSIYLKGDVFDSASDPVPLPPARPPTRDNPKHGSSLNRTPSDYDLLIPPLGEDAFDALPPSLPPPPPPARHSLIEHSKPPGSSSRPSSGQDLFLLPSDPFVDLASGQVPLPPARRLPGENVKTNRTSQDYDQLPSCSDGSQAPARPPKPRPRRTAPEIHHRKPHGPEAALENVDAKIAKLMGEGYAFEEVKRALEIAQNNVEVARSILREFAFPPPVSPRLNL

[3] = Induction of anti-CD3 antibodies-stimulated human T cell activation at 1 uM assessed fold increase in CD25 expression measured by ELISA assay; type: functional, T cell line; further: reference of the scale not given here
[4] = Induction of anti-CD3 antibodies-stimulated human T cell activation at 1 uM assessed fold increase in IL-2 secretion measured by ELISA assay; type: functional, T cell line; further: reference of the scale not given here
[5] = Induction of anti-CD3/CD28 antibodies-stimulated human T cell activation at 0.3 uM assessed fold increase in CD25 expression measured by ELISA assay; type: functional, T cell line
[6] = Induction of anti-CD3/CD28 antibodies-stimulated human T cell activation at 4 uM assessed fold increase in CD25 expression measured by ELISA assay; type: functional, T cell line
[7] = Induction of anti-CD3 antibodies-stimulated human T cell activation at 8 uM assessed fold increase in CD25 expression measured by ELISA assay; type: functional, T cell line; further: reference of the scale not given here
[8] = Induction of anti-CD3/CD28 antibodies-stimulated human T cell activation at 4 uM assessed fold increase in IL-2 secretion measured by ELISA assay; type: functional, T cell line
[9] = Induction of anti-CD3/CD28 antibodies-stimulated human T cell activation at 1 uM assessed fold increase in CD25 expression measured by ELISA assay; type: functional, T cell line
[10] = molecular target: T1, E3 ubiquitin-protein ligase CBL-B; assay: Binding affinity towards N-terminal biotinylated Avi-tagged human CBL-B (36 to 427 residues) measured by surface plasmon resonance assay
[11] = Induction of anti-CD3/CD28 antibodies-stimulated human T cell activation at 0.3 uM assessed fold increase in IL-2 secretion measured by ELISA assay; type: functional, T cell line
[12] = Induction of anti-CD3/CD28 antibodies-stimulated human T cell activation at 1 uM assessed fold increase in IL-2 secretion measured by ELISA assay; type: functional, T cell line

| SMILES | fold change (FC) [1] | IC50 [2] | fold change (FC) [3] | fold change (FC) [4] | fold change (FC) [5] | fold change (FC) [6] | fold change (FC) [7] | fold change (FC) [8] | fold change (FC) [9] | Kd [10] | fold change (FC) [11] | fold change (FC) [12] |
| --- | --- | --- | --- | --- | --- | --- | --- | --- | --- | --- | --- | --- |
| C[C@H](Cc1nncn1C)c1cccc(N2Cc3c(cc(CN4C[C@@H](F)[C@@H](O)C4)cc3C(F)(F)F)C2=O)c1 | >=0.201 | < 100 nM | >=1.001 | 0.151 | 1.01 | 1.31 | >=1.001 | >=7.5 | 1.31 | < 100 nM | 2.51 | 5 |
| C[C@H](Cc1nncn1C)c1cccc(N2Cc3c(cc(CN4CC(F)(F)C4)cc3C(F)(F)F)C2=O)c1 | >=0.201 | < 100 nM | >=1.001 | 0.151 | 1.01 | 1.31 | >=1.001 | >=7.5 | 1.31 | < 100 nM | 5 | >=7.5 |
| C[C@H](Cc1nncn1C)c1cccc(N2Cc3c(cc(CN4CC[C@@H](F)C4)cc3C(F)(F)F)C2=O)c1 | >=0.201 | < 100 nM | >=1.001 | >=0.201 | 1.01 | 1.31 | >=1.001 | >=7.5 | 1.01 | < 100 nM | 5 | >=7.5 |
| Cn1cnnc1CC(C)(C)c1cccc(N2Cc3c(cc(C4CC4)cc3C(F)(F)F)C2=O)c1 | >=0.201 | < 100 nM | 0.801 | 0.101 | 1.01 | 1.31 | >=1.001 | 5 | 1.01 | < 100 nM | 1.01 | 2.51 |
| C[C@H](Cc1nncn1C)c1cccc(N2Cc3c(cc(N(C)[C@H]4CCNC4)cc3C(F)(F)F)C2=O)c1 | >=0.201 | < 100 nM | 0.801 | 0.151 | 1.31 | 1.51 | >=1.001 | >=7.5 | 1.31 | < 100 nM | 2.51 | 2.51 |
| C[C@@H]1[C@@H](c2nncn2C)[C@H]1c1cccc(N2Cc3c(cccc3C(F)(F)F)C2=O)c1 | >=0.201 | < 100 nM | >=1.001 | 0.101 | >=1.76 | 1.31 | >=1.001 | 5 | 1.01 | < 100 nM | >=7.5 | 2.51 |
| C[C@H](Cc1nncn1C)c1cccc(N2Cc3c(cc(CN4CC(F)C4)cc3C(F)(F)F)C2=O)c1 | >=0.201 | < 100 nM | >=1.001 | 0.151 | 1.01 | 1.31 | >=1.001 | >=7.5 | 1.01 | < 100 nM | 2.51 | >=7.5 |
| CCNc1cc([C@H](C)Cc2nncn2C)cc(N2Cc3c(cccc3C(F)(F)F)C2=O)n1 | >=0.201 | < 100 nM | >=1.001 | >=0.201 | 1.31 | 1.51 | >=1.001 | >=7.5 | 1.51 | < 100 nM | 2.51 | >=7.5 |
| CC(O)c1cc2c(c(C(F)(F)F)c1)CN(c1cccc([C@H](C)Cc3nncn3C)c1)C2=O (stereo not given in full) | >=0.201 | < 100 nM | 0.801 | 0.151 | 1.01 | 1.31 | >=1.001 | >=7.5 | 1.31 | < 100 nM | 2.51 | 5 |
| C[C@H](Cc1nncn1C)c1cccc(N2Cc3c(cc([C@@H](C)N4CC[C@H](F)C4)cc3C(F)(F)F)C2=O)c1 | >=0.201 | < 100 nM | >=1.001 | 0.151 | 1.01 | 1.31 | >=1.001 | >=7.5 | 1.01 | < 100 nM | 5 | >=7.5 |
